System: Human primary melanocytes
Assay: Melanin production by human melanocytes irradiated with 20 mJ/cm^2 UVB 2 times, treated with test substances for 2 weeks (Test Example 3)
Format: cell-based
Experimental: Human primary melanocytes (Life Technologies, CA, USA) were cultured in M-254 medium (Gibco BRL, NY, USA) supplemented with human melanocyte growth supplement (HMGS; Gibco BRL, NY, USA) under the condition of 37° C. and 5% CO2. After plating the cells on a 100-mm culture dish with 2×10^5 cells per dish and waiting overnight, 20 mJ/cm^2 UVB was radiated 2 times with a 24-hour interval. Then, the cells were cultured for 2 weeks while replacing the medium with one containing the ginseng-derived exosome-like vesicles obtained in Example 1 at concentrations of 0.1 μg/mL, 1 μg/m L, 5 μg/mL or 10 μg/mL once in 4 days. For comparison, positive control groups were treated with 30 μM Melasolv, 1 μM compound K or 2 ppm fermented saponin for 2 weeks in the same manner and melanin production was measured. As negative control groups, melanocytes not treated with UVB and melanocytes treated with UVB but not treated with the test substances were cultured in the same manner. 2 weeks later, the cells were detached from the culture dish and counted. The cells of the same number were collected into a microtube, lysed with a RIPA lysis buffer (Millipore, 20-188) and then centrifuged at 13,500 rpm for 30 minutes. The precipitating pellets were dissolved in 1 N NaOH and photographed for comparison of color. Melanin contents were compared by measuring absorbance at 450 nm.

Structure (SMILES) | Decrease (%) in melanin contents (1 μM) | Decrease (%) in melanin contents (30 μM)
CC(C)=CCC[C@](C)(O[C@@H]1O[C@H](CO)[C@@H](O)[C@H](O)[C@H]1O)[C@H]1CC[C@]2(C)[C@@H]1[C@H](O)C[C@@H]1[C@@]3(C)CC[C@H](O)C(C)(C)[C@@H]3CC[C@]12C [Comp. K, compound K] | 28.3% | –
COc1cc(/C=C/C(=O)Oc2cc(C)ccc2C(C)C)cc(OC)c1OC [Melasolv] | – | 54.0%

Source: patent US10610467B2, “Lightening composition comprising ginseng-derived exosome-like vesicles” (AMOREPACIFIC CORPORATION, priority 2015, dated 2020)
